Assay results: US11986471B2, “Compounds and methods of use” (Tango Therapeutics, Inc., priority 2018, dated 2024)

Tests used:
Format in all cases: biochemical
PRMT5 [1] = target: T1, PRMT5 (Homo sapiens, UniProt O14744); test: PRMT5 IC50 assay in the presence of SAM as cofactor
T1 construct: purchased Viva (custom protein)
Source text: (§1) Table 1a indicates IC50 values (μM) against PRMT5 for exemplary compounds in the presence of SAM as cofactor, with no cofactor and with MTA as cofactor, respectively (columns 3-5). […] The Ki values can be calculated from the IC50 values as described in the Examples section. As detailed in the Examples section, for the assay performed in the presence of SAM, IC50=Ki×1.5 (Ki=IC50/1.5). For the assay performed in the presence of MTA, IC50=Ki×13.5 (Ki=IC50/13.5). Column 6 indicates the ratio between the Ki of compounds in the presence of SAM and the Ki of compounds in the presence of MTA

PRMT5 [2] = target: T1, PRMT5; test: PRMT5 IC50 assay with no cofactor
Source text: as §1

PRMT5 [3] = target: T1, PRMT5; test: PRMT5 IC50 assay in the presence of MTA as cofactor; conditions: for IC50: PRMT5, MTA as cofactor
Source text: as §1

[4] = ratio between Ki in the presence of SAM and Ki in the presence of MTA
[5] = ratio between the Ki in the presence of SAM and the Ki in the presence of MTA

T1 sequence (O14744 whole entry): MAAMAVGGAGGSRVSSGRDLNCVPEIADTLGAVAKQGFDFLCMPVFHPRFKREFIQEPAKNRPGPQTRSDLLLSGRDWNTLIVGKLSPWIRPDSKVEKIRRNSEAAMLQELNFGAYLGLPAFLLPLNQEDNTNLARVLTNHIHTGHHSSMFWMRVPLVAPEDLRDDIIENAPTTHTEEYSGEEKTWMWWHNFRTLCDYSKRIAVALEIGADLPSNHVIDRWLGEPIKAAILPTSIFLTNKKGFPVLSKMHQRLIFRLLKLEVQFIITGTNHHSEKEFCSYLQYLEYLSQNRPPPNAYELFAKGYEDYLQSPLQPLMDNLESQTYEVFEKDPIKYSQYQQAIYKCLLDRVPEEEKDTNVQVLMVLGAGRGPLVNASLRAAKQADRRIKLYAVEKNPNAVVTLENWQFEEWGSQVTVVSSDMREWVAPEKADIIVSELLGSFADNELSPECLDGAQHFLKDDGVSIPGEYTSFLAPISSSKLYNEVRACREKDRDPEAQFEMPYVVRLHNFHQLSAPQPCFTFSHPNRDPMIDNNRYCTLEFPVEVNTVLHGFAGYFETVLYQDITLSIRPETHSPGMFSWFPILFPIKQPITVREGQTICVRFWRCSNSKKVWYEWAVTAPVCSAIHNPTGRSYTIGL
T1 sequence (Q9BQA1 whole entry partner): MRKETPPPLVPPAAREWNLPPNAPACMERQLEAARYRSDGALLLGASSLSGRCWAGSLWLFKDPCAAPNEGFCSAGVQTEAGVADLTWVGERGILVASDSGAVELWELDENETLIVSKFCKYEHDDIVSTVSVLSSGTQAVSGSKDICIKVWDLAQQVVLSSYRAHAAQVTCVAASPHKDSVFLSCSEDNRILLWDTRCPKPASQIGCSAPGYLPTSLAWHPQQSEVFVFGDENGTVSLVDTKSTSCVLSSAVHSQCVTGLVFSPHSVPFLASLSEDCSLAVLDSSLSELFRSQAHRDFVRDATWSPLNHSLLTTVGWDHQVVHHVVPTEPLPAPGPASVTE

Row | Structure (SMILES) | IC50 (PRMT5 [1]) [nM] | IC50 (PRMT5 [2]; read-out: No Co-factor IC50) [nM] | IC50 (PRMT5 [3]) [nM] | SAM/MTA Ratio (PRMT5 [3]; [4]) | IC50 (PRMT5 [2]) [nM] | SAM/MTA Ratio (PRMT5 [3]; [5])
1 | O=C1N[C@H]2[C@H](CS[C@H]2CCCCC(=O)N2CCC(Nc3cc(C(=O)NC[C@H](O)CN4CCc5cc(OCc6cnco6)ccc5C4)ncn3)CC2)N1 [Compound 265] | 50 to 500 | 500 to 5000 | < 50 | A (a Ki ratio greater than or equal to 10 fold between the Ki in the presence of SAM and the Ki in the presence of MTA) | – | –
2 | O=C(NC[C@H](O)CN1CCc2c(ccc(OCc3cnco3)c2Cl)C1)c1cc(NC2CCC2)ncn1 [Compound 508, (S)—N-(3-(5-chloro-6-(oxazol-5-ylmethoxy)-3,4-dihydroisoquinolin-2(1H)-yl)-2-hydroxypropyl)-6-(cyclobutylamino)pyrimidine-4-carboxamide] | 500 to 5000 | – | 50 to 500 | – | ≥ 5000 | A (a Ki ratio greater than or equal to 10 fold between the Ki in the presence of SAM and the Ki in the presence of MTA)
3 | CC(=O)N1CC(Nc2cc(C(=O)NC[C@H](O)CN3CCc4c(ccc(OCc5cnco5)c4C)C3)ncn2)C1 [Compound 543, 6-[(1-acetylazetidin-3-yl)amino]-N-[(2S)-2-hydroxy-3-{5-methyl-6-[(1,3-oxazol-5-yl)methoxy]-1,2,3,4-tetrahydroisoquinolin-2-yl}propyl]pyrimidine-4-carboxamide] | 500 to 5000 | – | 500 to 5000 | – | ≥ 5000 | A (a Ki ratio greater than or equal to 10 fold between the Ki in the presence of SAM and the Ki in the presence of MTA)
4 | Cc1c(OCc2ccnn2C)ccc2c1CCN(C[C@@H](O)CNC(=O)c1cc(NC3CCC3)ccn1)C2 [Compound 521, (S)-4-(cyclobutylamino)-N-(2-hydroxy-3-(5-methyl-6-((1-methyl-1H-pyrazol-5-yl)methoxy)-3N-dihydroisoquinolin-2(1H)-yl)propyl)picolinamide] | 500 to 5000 | – | 500 to 5000 | – | ≥ 5000 | A (a Ki ratio greater than or equal to 10 fold between the Ki in the presence of SAM and the Ki in the presence of MTA)
5 | Cc1c(OCc2cnco2)ccc2c1CCN(C[C@@H](O)CNC(=O)c1cccc(NC3CCOCC3)c1)C2 [Compound 548, N-[(2S)-2-hydroxy-3-{5-methyl-6-[(1,3-oxazol-5-yl)methoxy]-1,2,3,4-tetrahydroisoquinolin-2-yl}propyl]-3-[(oxan-4-yl)amino]benzamide] | 500 to 5000 | – | 500 to 5000 | – | ≥ 5000 | A (a Ki ratio greater than or equal to 10 fold between the Ki in the presence of SAM and the Ki in the presence of MTA)
6 | CCCC(=O)N1CC(Nc2cc(C(=O)NC[C@H](O)CN3CCc4cc(OCc5ocnc5C)c(F)cc4C3)ccn2)C1 [Compound 643, 2-[(1-butanoylazetidin-3-yl)amino]-N-[(2S)-3-[7-fluoro-6-[(4-methyloxazol-5-yl)methoxy]-3,4-dihydro-1H-isoquinolin-2-yl]-2-hydroxy-propyl]pyridine-4-carboxamide] | 50 to 500 | 500 to 5000 | 50 to 500 | A (a Ki ratio greater than or equal to 10 fold between the Ki in the presence of SAM and the Ki in the presence of MTA) | – | –
7 | COCCN(C)c1cc(NC2CCN(C(C)=O)CC2)cc(C(=O)NC[C@@H](O)CN2CCc3cc(OCc4ocnc4C)ccc3C2)c1 (single isomer, unassigned) [Compound 648] | 50 to 500 | ≥ 5000 | 50 to 500 | A (a Ki ratio greater than or equal to 10 fold between the Ki in the presence of SAM and the Ki in the presence of MTA) | – | –
8 | Cc1c(OCc2cnco2)ccc2c1CCN(C[C@@H](O)CNC(=O)c1cc(NC3CN(C(=O)C4CCC4)C3)ncn1)C2 [Compound 585, 6-[(1-cyclobutanecarbonylazetidin-3-yl)amino]-N-[(2S)-2-hydroxy-3-{5-methyl-6-[(1,3-oxazol-5-yl)methoxy]-1,2,3,4-tetrahydroisoquinolin-2-yl}propyl]pyrimidine-4-carboxamide] | 50 to 500 | – | 50 to 500 | – | ≥ 5000 | A (a Ki ratio greater than or equal to 10 fold between the Ki in the presence of SAM and the Ki in the presence of MTA)
